# Measured values taken from the supplement of paper PMC10307832.
# What was measured:
# Test in all cases: relative viability (nuclei count vs DMSO), 5 days (fraction); higher = more cells survive
# Avagacestat + Decitabine = compound: NC(=O)[C@@H](CCC(F)(F)F)N(Cc1ccc(-c2ncon2)cc1F)S(=O)(=O)c1ccc(Cl)cc1 [Avagacestat] + Nc1ncn([C@H]2C[C@H](O)[C@@H](CO)O2)c(=O)n1 [Decitabine] (partner 2 µM)
# Summary of the method: (§1)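 For relative viability, nuclei counts in treated wells were divided by those in vehicle wells. Lung cancer cell lines had been pin-tool dosed in 1536-well plates the day after seeding and cultured for 5 days, then fixed and stained in one step (final 0.05% Triton X-100, 1% formaldehyde, 1 ug/ml Hoechst) and imaged at 4×. Doses were one drug alone or a fixed anchor-drug dose plus five library-drug doses (not always all listed) in √10 steps, and values are duplicate-plate medians.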
# Avagacestat + Lapatinib = compound: NC(=O)[C@@H](CCC(F)(F)F)N(Cc1ccc(-c2ncon2)cc1F)S(=O)(=O)c1ccc(Cl)cc1 [Avagacestat] + CS(=O)(=O)CCNCc1ccc(-c2ccc3ncnc(Nc4ccc(OCc5cccc(F)c5)c(Cl)c4)c3c2)o1 [Lapatinib] (partner 2 µM)
# Summary of the method: as §1
# Avagacestat + Bortezomib = compound: NC(=O)[C@@H](CCC(F)(F)F)N(Cc1ccc(-c2ncon2)cc1F)S(=O)(=O)c1ccc(Cl)cc1 [Avagacestat] + CC(C)C[C@H](NC(=O)[C@H](Cc1ccccc1)NC(=O)c1cnccn1)B(O)O [Bortezomib] (partner 0.002 µM)
# Summary of the method: as §1
# Avagacestat + AZD7762 = compound: NC(=O)[C@@H](CCC(F)(F)F)N(Cc1ccc(-c2ncon2)cc1F)S(=O)(=O)c1ccc(Cl)cc1 [Avagacestat] + NC(=O)Nc1cc(-c2cccc(F)c2)sc1C(=O)N[C@H]1CCCNC1 [AZD7762] (partner 0.2 µM)
# Summary of the method: as §1
Cell Line,relative viability (Avagacestat + Decitabine; first compound 0.08 µM),relative viability (Avagacestat + Decitabine; first compound 0.253 µM),relative viability (Avagacestat + Decitabine; first compound 0.8 µM),relative viability (Avagacestat + Decitabine; first compound 2.53 µM),relative viability (Avagacestat + Decitabine; first compound 8 µM),relative viability (Avagacestat + Lapatinib; first compound 0.08 µM),relative viability (Avagacestat + Lapatinib; first compound 0.253 µM),relative viability (Avagacestat + Lapatinib; first compound 0.8 µM),relative viability (Avagacestat + Lapatinib; first compound 2.53 µM),relative viability (Avagacestat + Lapatinib; first compound 8 µM),relative viability (Avagacestat + Bortezomib; first compound 0.08 µM),relative viability (Avagacestat + Bortezomib; first compound 0.253 µM),relative viability (Avagacestat + Bortezomib; first compound 0.8 µM),relative viability (Avagacestat + Bortezomib; first compound 2.53 µM),relative viability (Avagacestat + Bortezomib; first compound 8 µM),relative viability (Avagacestat + AZD7762; first compound 0.08 µM),relative viability (Avagacestat + AZD7762; first compound 0.253 µM),relative viability (Avagacestat + AZD7762; first compound 0.8 µM),relative viability (Avagacestat + AZD7762; first compound 2.53 µM),relative viability (Avagacestat + AZD7762; first compound 8 µM)
A549,0.331,0.254,0.296,0.31,0.259,1.58,0.977,1.09,0.939,1.11,–,–,–,–,–,–,–,–,–,–
COR-L23,0.519,0.406,0.434,0.399,0.39,1.26,1.1,1.3,0.95,0.4,1.58,1.3,1.14,1.03,0.528,–,–,–,–,–
COR-L 105,0.665,0.734,0.642,0.595,0.558,0.345,0.352,0.341,0.345,0.348,0.894,0.681,0.689,0.697,0.687,–,–,–,–,–
Calu-6,–,–,–,–,–,1.41,1.41,1.26,1.47,1.03,1.27,1.09,1.08,1.17,0.975,–,–,–,–,–
IA-LM,–,–,–,–,–,1.8,1.39,1.38,1,1.07,1.39,1.28,0.823,0.855,1.25,–,–,–,–,–
LK-2,0.413,0.269,0.256,–,0.291,1.13,0.985,0.785,0.521,0.76,–,–,–,–,–,0.408,0.384,0.41,0.4,0.291
NCI-H358,0.251,0.264,0.19,0.212,0.219,0.418,0.438,0.571,0.469,0.427,–,–,–,–,–,0.516,0.595,0.57,0.481,0.461
NCI-H520,0.606,0.501,0.467,0.453,0.475,1.03,0.878,0.846,0.724,0.663,0.728,0.555,0.679,0.48,0.334,–,–,–,–,–
NCI-H522,0.782,0.674,0.681,0.606,0.614,–,–,–,–,–,–,–,–,–,–,0.768,0.82,0.807,0.843,0.985
NCI-H661,0.585,0.568,0.608,0.56,0.558,0.508,0.594,0.473,–,0.497,0.919,1.06,0.774,–,0.693,–,–,–,–,–
NCI-H1299,–,–,–,–,–,1.03,0.984,0.988,0.924,0.926,1.03,1.01,1,1.01,0.991,–,–,–,–,–
NCI-H1395,0.719,0.717,0.67,0.692,0.681,0.981,1.08,0.94,1.17,0.79,–,–,–,–,–,0.407,0.365,0.369,0.412,0.333
NCI-H1563,–,–,–,–,–,0.959,0.806,0.951,0.828,0.925,0.917,0.821,0.898,0.792,0.835,–,–,–,–,–
NCI-H1648,0.469,0.392,0.265,0.363,0.37,–,–,–,–,–,–,–,–,–,–,0.603,0.564,0.548,0.46,0.48
NCI-H1650,0.432,0.558,0.457,0.432,0.416,1.02,0.825,0.695,0.884,0.853,0.212,0.232,0.196,0.211,0.21,–,–,–,–,–
NCI-H2009,0.412,0.384,0.386,0.332,0.395,0.963,0.995,0.857,0.993,0.814,1.04,1.03,1.07,1.02,0.828,–,–,–,–,–
NCI-H2023,0.255,0.257,0.288,0.221,0.218,0.979,0.89,0.822,0.617,0.7,1.13,1.1,1.08,0.886,0.808,–,–,–,–,–
NCI-H2228,–,–,–,–,–,1.33,0.875,1.52,1.13,0.718,1.12,0.952,1.05,0.886,0.734,–,–,–,–,–
NCI-H2342,0.738,0.686,0.706,0.695,0.742,–,–,–,–,–,–,–,–,–,–,0.479,0.536,0.589,0.499,0.438
SK-LU-1,0.66,0.638,0.699,0.53,0.552,0.956,0.852,0.889,–,0.73,1.46,1.21,1.32,1.13,0.737,–,–,–,–,–
SK-MES-1,0.367,0.415,0.373,0.329,0.311,0.476,0.496,0.531,0.444,0.423,–,–,–,–,–,–,–,–,–,–
SW 1573,0.539,0.582,0.664,0.446,0.59,1.19,1.21,0.982,1.1,1.09,1.26,1.03,1.19,0.967,0.922,–,–,–,–,–
UMC-11,0.657,0.57,0.585,0.602,0.597,1.17,1,1.26,1.1,0.921,0.915,0.563,0.722,0.749,0.414,–,–,–,–,–
